Data published in US9018263B2, “Antimicrobial compositions comprising trimethylene glycol oligomer and methods of using the compositions” (E I du Pont de Nemours and Company, priority 2010, dated 2015).

Key:
[1] = system: Escherichia coli ATCC 8739; assay: Example 4: di(1,3-propanediol) and DPG, plate counts; type: cell-based; conditions: for CFU/mL: E. coli inoculum
Description: (§1) Two test microorganisms were used, the Gram-negative bacterium, Escherichia coli ATCC 8739, and the Gram-positive bacterium, Staphylococcus aureus ATCC 6538. These microrganisms were grown overnight in 10 mL Tryptic soy broth (TSB) starter cultures, and then inoculated into Klett flasks containing 30 mL of TSB. The Klett flasks were incubated on an incubator shaker at 37° C. until the desired Klett reading was obtained (early stationary phase). Each test inoculum was prepared by adding 0.1 mL of the Klett flask culture to 9.9 mL of Mueller-Hinton II Broth (cation-adjusted) or M9 Broth.
(§2) The unfractionated mixture, each fraction, a control, and DPG (comparative example) were analyzed for antibacterial or bacteristatic properties against E. coli according to the protocol shown below. Numbers in exponential format are indicated with “E”, i.e. 2.2×10^+9 are written as 2.2E+09.

[2] = system: Staphylococcus aureus ATCC 6538; assay: as above; type: cell-based; conditions: for CFU/mL: S. aureus inoculum; for effect on gram positive bacteria (in words): S. aureus
Description: [The source words this procedure for another target and reports this target under the same test.] as §1, §2

Compound | CFU/mL ([1]; Conc. 0.1%) | CFU/mL ([1]; Conc. 0.5%) | CFU/mL ([1]; Conc. 1%) | CFU/mL ([1]; Conc. 10%) | CFU/mL ([2]; Conc. 0.1%) | CFU/mL ([2]; Conc. 0.5%) | CFU/mL ([2]; Conc. 1%) | CFU/mL ([2]; Conc. 10%) | effect on gram positive bacteria (in words) ([2]; 0.1 to 10%) | effect on gram negative bacteria (in words) ([1]; E. coli, concentrations of 0.5% and 1%) | effect on gram positive bacteria (in words) ([2]; concentrations of 0.5% and 1%)
1,2-dipropaneglycol [DPG] | 2.1E+08 CFU/mL | 2.9E+08 CFU/mL | 3.7E+08 CFU/mL | 1.5E+05 CFU/mL | 2.0E+07 CFU/mL | 2.0E+07 CFU/mL | 2.0E+07 CFU/mL | 2.1E+07 CFU/mL | little or no antibacterial or bacteristatic effect | – | –
OCCCOCCCO [PDO Dimer, di(1,3-propanediol)] | 3.2E+08 CFU/mL | 7.6E+02 CFU/mL | <10 CFU/mL | – | 2.7E+07 CFU/mL | 1.4E+04 CFU/mL | 1.6E+03 CFU/mL | – | – | kills or inhibits the growth | kills or inhibits the growth
